Results taken from patent publication US9072703B2 (Ipsen Pharma S.A.S., priority 2008, dated 2015).
Non-standard residues stand in square brackets, D forms with d. Residues, ends and D or L forms follow the SMILES beside them. No end group written: not given here. 12Ado = NCCCCCCCCCCCC(=O)O; Ac6c = NC1(C(=O)O)CCCCC1; Nle = CCCC[C@H](N)C(=O)O; Ac5c = NC1(C(=O)O)CCCC1; Aib = CC(C)(N)C(=O)O

Columns and labels:
[1] = Human plasma half-life assay; type: in vitro ADME; details: 37° C., LC-MS, read-out: Human Plasma T½ (converted)
Description: (§1) B. Human and Rat Plasma Half-Life Assay
(§2) 50 μL was removed at various times, like at 0, 1, 2, 3, 4, 8, 24, 32, 48, 56, 72 hours, mixed with 5 μL formic acid and 150 μL acetonitrile in a microcentrifuge tube, vertexed, and centrifuged for 10 minutes at 10K rpm. The supernatant was transferred to an injection vial and analyzed by LC-MS. The LC-MS system consisted of an API4000 mass spectrometer with an ESI probe. Positive ion mode and full scan detection were used. HPLC separation was carried out on a Luna 3μ C8 (2), 2×30 mm column with a gradient from 90% A to 90% B in 10 minutes at a flow rate of 0.3 ml/min. Buffer A was 1% formic acid in water and buffer B was 1% formic acid acetonitrile.

[2] = Rat plasma half-life assay; type: in vitro ADME; details: 37° C., LC-MS, read-out: Rat Plasma T½ (converted)
Description: as §1, §2

Compound	half-life at 0.1 mg/ml [1]	half-life at 0.1 mg/ml [2]
YAEGTFISDY[Ac5c]IAMDKIHQQDFVNWLLAQKGKKNDWKHNITQ[12Ado]-OH [Example 13, (A5c^11, Ado^43)hGIP(1-43)-OH]	13.1 h	18.8 h
YAEGTFISDY[Ac6c]IA[Ac6c]DKIHQQDFVNWLLAQKGKKNDWKHNI[Ac6c]Q-OH [Example 11, (A6c^11, 14, 41)hGIP(1-42)-OH]	13.1 h	8.6 h
CC[C@H](C)[C@H](NC(=O)[C@H](CCCCN)NC(=O)[C@H](CC(=O)O)NC(=O)[C@H](CCSC)NC(=O)[C@H](C)NC(=O)[C@@H](NC(=O)C1(NC(=O)[C@H](Cc2ccc(O)cc2)NC(=O)[C@H](CC(=O)O)NC(=O)[C@H](CO)NC(=O)[C@@H](NC(=O)[C@H](Cc2ccccc2)NC(=O)[C@@H](NC(=O)CNC(=O)[C@H](CCC(=O)O)NC(=O)[C@H](C)NC(=O)[C@@H](N)Cc2ccc(O)cc2)[C@@H](C)O)[C@@H](C)CC)CCCC1)[C@@H](C)CC)C(=O)N[C@@H](Cc1c[nH]cn1)C(=O)N[C@@H](CCC(N)=O)C(=O)N[C@@H](CCC(N)=O)C(=O)N[C@@H](CC(=O)O)C(=O)N[C@@H](Cc1ccccc1)C(=O)N[C@H](C(=O)N[C@@H](CC(N)=O)C(=O)N[C@@H](Cc1c[nH]c2ccccc12)C(=O)N[C@@H](CC(C)C)C(=O)N[C@@H](CC(C)C)C(=O)N[C@@H](C)C(=O)N[C@@H](CCC(N)=O)C(=O)N[C@@H](CCCCN)C(N)=O)C(C)C [Example 28, (A5c^11)hGIP(1-30)-NH2] (H-YAEGTFISDY[Ac5c]IAMDKIHQQDFVNWLLAQK-NH2; N-terminus assumed)	6.6 h	2.4 h
YAEGTFISDY[Ac5c]IAMDKIHQQDFVNWLLAQKGKKNDWKHNITQA-OH [Example 8, (A5c^11, Ala^43)hGIP(1-43)-OH]	7.4 h	2.3 h
CCCC[C@H](NC(=O)[C@H](C)NC(=O)[C@@H](NC(=O)C1(NC(=O)[C@H](Cc2ccc(O)cc2)NC(=O)[C@H](CC(=O)O)NC(=O)[C@H](CO)NC(=O)[C@@H](NC(=O)[C@H](Cc2ccccc2)NC(=O)[C@@H](NC(=O)CNC(=O)[C@H](CCC(=O)O)NC(=O)[C@H](C)NC(=O)[C@@H](N)Cc2ccc(O)cc2)[C@@H](C)O)[C@@H](C)CC)CCCC1)[C@@H](C)CC)C(=O)N[C@@H](CC(=O)O)C(=O)N[C@@H](CCCCN)C(=O)N[C@H](C(=O)N[C@@H](Cc1c[nH]cn1)C(=O)N[C@@H](CCC(N)=O)C(=O)N[C@@H](CCC(N)=O)C(=O)N[C@@H](CC(=O)O)C(=O)N[C@@H](Cc1ccccc1)C(=O)N[C@H](C(=O)N[C@@H](CC(N)=O)C(=O)N[C@@H](Cc1c[nH]c2ccccc12)C(=O)N[C@@H](CC(C)C)C(=O)N[C@@H](CC(C)C)C(=O)N[C@@H](C)C(=O)N[C@@H](CCC(N)=O)C(=O)N[C@@H](CCCCN)C(=O)NCC(=O)N[C@@H](CCCCN)C(=O)N[C@@H](CCCCN)C(=O)N[C@@H](CC(N)=O)C(=O)N[C@@H](CC(=O)O)C(=O)N[C@@H](Cc1c[nH]c2ccccc12)C(=O)N[C@@H](CCCCN)C(=O)N[C@@H](Cc1c[nH]cn1)C(=O)N[C@@H](CC(N)=O)C(=O)N[C@H](C(=O)N[C@H](C(=O)N[C@@H](CCC(N)=O)C(=O)N[C@@H](Cc1c[nH]cn1)C(=O)O)[C@@H](C)O)[C@@H](C)CC)C(C)C)[C@@H](C)CC [Example 21, (A5c^11, Nle^14, His^43)hGIP(1-43)-OH]	11.1 h	2.8 h
YAEGTFISDY[Ac6c]IA[Ac6c]DKIHQQDFVNWLLAQKGKKNDWKHN[Ac6c]TQ-OH [Example 14, (A6c^11, 14, 40)hGIP(1-42)-OH]	11.6 h	4.8 h
CC[C@H](C)[C@H](NC(=O)[C@H](CCCCN)NC(=O)[C@H](CC(=O)O)NC(=O)C1(NC(=O)[C@H](C)NC(=O)[C@@H](NC(=O)C2(NC(=O)[C@H](Cc3ccc(O)cc3)NC(=O)[C@H](CC(=O)O)NC(=O)[C@H](CO)NC(=O)[C@@H](NC(=O)[C@H](Cc3ccccc3)NC(=O)[C@@H](NC(=O)CNC(=O)[C@H](CCC(=O)O)NC(=O)[C@H](C)NC(=O)[C@@H](N)Cc3ccc(O)cc3)[C@@H](C)O)[C@@H](C)CC)CCCC2)[C@@H](C)CC)CCCC1)C(=O)N[C@@H](Cc1c[nH]cn1)C(=O)N[C@@H](CCC(N)=O)C(=O)N[C@@H](CCC(N)=O)C(=O)N[C@@H](CC(=O)O)C(=O)N[C@@H](Cc1ccccc1)C(=O)N[C@H](C(=O)N[C@@H](CC(N)=O)C(=O)N[C@@H](Cc1c[nH]c2ccccc12)C(=O)N[C@@H](CC(C)C)C(=O)N[C@@H](CC(C)C)C(=O)N[C@@H](C)C(=O)N[C@@H](CCC(N)=O)C(=O)N[C@@H](CCCCN)C(N)=O)C(C)C [Example 30, (A5c^11, 14)hGIP(1-30)-NH2] (H-YAEGTFISDY[Ac5c]IA[Ac5c]DKIHQQDFVNWLLAQK-NH2; N-terminus assumed)	6.2 h	13.6 h
YAEGTF[Ac6c]SDYSIAMDKIHQQDFVNWLLAQKGKKNDWKHNI[Ac6c]Q-OH [Example 16, (A6c^7, 41)hGIP(1-42)-OH]	6.5 h	1.3 h
YAEGTFISDY[Ac5c]IAMDKIHQQDFVNWLLAQKGKKNDWKHNITQT-OH [Example 10, (A5c^11, Thr^43)hGIP(1-43)-OH]	7.9 h	2.1 h
CCCCCCCCCCCC(=O)NCCC[C@H](NC(=O)CNC(=O)[C@H](CCCCN)NC(=O)[C@H](CCC(N)=O)NC(=O)[C@H](C)NC(=O)[C@H](CC(C)C)NC(=O)[C@H](CC(C)C)NC(=O)[C@H](Cc1c[nH]c2ccccc12)NC(=O)[C@H](CC(N)=O)NC(=O)[C@@H](NC(=O)[C@H](Cc1ccccc1)NC(=O)[C@H](CC(=O)O)NC(=O)[C@H](CCC(N)=O)NC(=O)[C@H](CCC(N)=O)NC(=O)[C@H](Cc1c[nH]cn1)NC(=O)[C@@H](NC(=O)[C@H](CCCCN)NC(=O)[C@H](CC(=O)O)NC(=O)[C@H](CCSC)NC(=O)[C@H](C)NC(=O)[C@@H](NC(=O)C1(NC(=O)[C@H](Cc2ccc(O)cc2)NC(=O)[C@H](CC(=O)O)NC(=O)[C@H](CO)NC(=O)[C@@H](NC(=O)[C@H](Cc2ccccc2)NC(=O)[C@@H](NC(=O)CNC(=O)[C@H](CCC(=O)O)NC(=O)[C@H](C)NC(=O)[C@@H](N)Cc2ccc(O)cc2)[C@@H](C)O)[C@@H](C)CC)CCCC1)[C@@H](C)CC)[C@@H](C)CC)C(C)C)C(=O)N[C@@H](CCCCN)C(=O)N[C@@H](CC(N)=O)C(=O)N[C@@H](CC(=O)O)C(=O)N[C@@H](Cc1c[nH]c2ccccc12)C(=O)N[C@@H](CCCCN)C(=O)N[C@@H](Cc1c[nH]cn1)C(=O)N[C@@H](CC(N)=O)C(=O)N[C@H](C(=O)N[C@H](C(=O)N[C@@H](CCC(N)=O)C(=O)N[C@@H](Cc1c[nH]cn1)C(=O)O)[C@@H](C)O)[C@@H](C)CC [Example 34, [A5c^11, Orn^32(N—C(O)—(CH2)10—CH3), His^43]hGIP(1-43)-OH]	7.5 h	20.1 h
CCCCCCCCCCCCCCCC(=O)NCCC[C@H](NC(=O)[C@H](CCCCN)NC(=O)CNC(=O)[C@H](CCCCN)NC(=O)[C@H](CCC(N)=O)NC(=O)[C@H](C)NC(=O)[C@H](CC(C)C)NC(=O)[C@H](CC(C)C)NC(=O)[C@H](Cc1c[nH]c2ccccc12)NC(=O)[C@H](CC(N)=O)NC(=O)[C@@H](NC(=O)[C@H](Cc1ccccc1)NC(=O)[C@H](CC(=O)O)NC(=O)[C@H](CCC(N)=O)NC(=O)[C@H](CCC(N)=O)NC(=O)[C@H](Cc1c[nH]cn1)NC(=O)[C@@H](NC(=O)[C@H](CCCCN)NC(=O)[C@H](CC(=O)O)NC(=O)[C@H](CCSC)NC(=O)[C@H](C)NC(=O)[C@@H](NC(=O)C1(NC(=O)[C@H](Cc2ccc(O)cc2)NC(=O)[C@H](CC(=O)O)NC(=O)[C@H](CO)NC(=O)[C@@H](NC(=O)[C@H](Cc2ccccc2)NC(=O)[C@@H](NC(=O)CNC(=O)[C@H](CCC(=O)O)NC(=O)[C@H](C)NC(=O)[C@@H](N)Cc2ccc(O)cc2)[C@@H](C)O)[C@@H](C)CC)CCCC1)[C@@H](C)CC)[C@@H](C)CC)C(C)C)C(=O)N[C@@H](CC(N)=O)C(=O)N[C@@H](CC(=O)O)C(=O)N[C@@H](Cc1c[nH]c2ccccc12)C(=O)N[C@@H](CCCCN)C(=O)N[C@@H](Cc1c[nH]cn1)C(=O)N[C@@H](CC(N)=O)C(=O)N[C@H](C(=O)N[C@H](C(=O)N[C@@H](CCC(N)=O)C(=O)N[C@@H](Cc1c[nH]cn1)C(=O)O)[C@@H](C)O)[C@@H](C)CC [Example 42, [A5c^11, Orn^33(N—C(O)—(CH2)14—CH3), His^43]hGIP(1-43)-OH]	6.3 h	28.3 h
YAEGTFISDYSI[Aib]MDKIHQQDFVNWLLAQKGKKNDWKHNITQW-OH [Example 12, (Aib^13, Trp^43)hGIP(1-43)-OH]	6.9 h	2.1 h
YAEGTFISDY[Ac5c]IAMDKIHQQDFVNWLLAQKGCKNDWKHNI[Ac5c]Q-NH2 [Example 31, (A5c^11, 41, Cys^32)hGIP(1-42)-NH2]	26.6 h	16.3 h
YAEGTFISDYSI[Aib][Nle]DKIHQQDFVNWLLAQKGKKNDWKHNITQF-OH [Example 9, (Aib^13, Nle^14, Phe^43)hGIP(1-43)-OH]	6.9 h	1.3 h
